Reference: ChEMBL document CHEMBL5236646, “Design, synthesis, and biological evaluation of BRD4 degraders” (Bioorg Med Chem, 2023)
The source made the active and inactive calls. No cut-off for these calls is given here.

Tests used:
MM1.S = assay: Antiproliferative activity against human MM1.S cells assessed as inhibition of cell growth incubated for 72 hrs MTS assay; assay type: functional, cell-based
MV4-11 = assay: Antiproliferative activity against human […] cells assessed as inhibition of cell growth incubated for 72 hrs MTS assay; assay type: functional, cell-based; details: MV4-11, 72 h
[1] = molecular target: T1, Protein cereblon/Bromodomain-containing protein 4 (Homo sapiens) (UniProt O60885+Q96SW2); assay: Protac activity at CRBN/BRD4 in human MM1.S cells assessed as induction of BRD4 protein degradation by measuring residual activity at 0.04 uM incubated for 3 hrs by Western blot analysis relative to control; assay type: cell-based
[2] = molecular target: T1, Protein cereblon/Bromodomain-containing protein 4 (Homo sapiens); assay: Protac activity at CRBN/BRD4 in human MM1.S cells assessed as induction of BRD4 protein degradation by measuring residual activity at 0.12 uM incubated for 3 hrs by Western blot analysis relative to control; assay type: cell-based
[3] = molecular target: T1, Protein cereblon/Bromodomain-containing protein 4 (Homo sapiens); assay: Protac activity at CRBN/BRD4 in human MM1.S cells assessed as induction of BRD4 protein degradation by measuring residual activity at 0.36 uM incubated for 3 hrs by Western blot analysis relative to control; assay type: cell-based
[4] = molecular target: T1, Protein cereblon/Bromodomain-containing protein 4 (Homo sapiens); assay: Protac activity at CRBN/BRD4 in human MV4-11 cells assessed as induction of BRD4 protein degradation by measuring residual activity at 0.01 uM incubated for 3 hrs by Western blot analysis relative to control; assay type: cell-based
[5] = molecular target: T1, Protein cereblon/Bromodomain-containing protein 4 (Homo sapiens); assay: Protac activity at CRBN/BRD4 in human MV4-11 cells assessed as induction of BRD4 protein degradation by measuring residual activity at 0.03 uM incubated for 3 hrs by Western blot analysis relative to control; assay type: cell-based
[6] = molecular target: T1, Protein cereblon/Bromodomain-containing protein 4 (Homo sapiens); assay: Protac activity at CRBN/BRD4 in human MV4-11 cells assessed as induction of BRD4 protein degradation by measuring residual activity at 0.09 uM incubated for 3 hrs by Western blot analysis relative to control; assay type: cell-based
[7] = molecular target: T1, Protein cereblon/Bromodomain-containing protein 4 (Homo sapiens); assay: Protac activity at CRBN/BRD4 in human MM1.S cells assessed as induction of BRD4 protein degradation by measuring residual activity at 0.06 uM incubated for 3 hrs by Western blot analysis relative to control; assay type: cell-based
[8] = molecular target: T1, Protein cereblon/Bromodomain-containing protein 4 (Homo sapiens); assay: Protac activity at CRBN/BRD4 in human MM1.S cells assessed as induction of BRD4 protein degradation by measuring residual activity at 0.18 uM incubated for 3 hrs by Western blot analysis relative to control; assay type: cell-based
[9] = molecular target: T1, Protein cereblon/Bromodomain-containing protein 4 (Homo sapiens); assay: Protac activity at CRBN/BRD4 in human MM1.S cells assessed as induction of BRD4 protein degradation by measuring residual activity at 0.02 uM incubated for 3 hrs by Western blot analysis relative to control; assay type: cell-based
[10] = molecular target: T1, Protein cereblon/Bromodomain-containing protein 4 (Homo sapiens); assay: Protac activity at CRBN/BRD4 in human MV4-11 cells assessed as induction of BRD4 protein degradation by measuring residual activity at 0.005 uM incubated for 3 hrs by Western blot analysis relative to control; assay type: cell-based
[11] = molecular target: T1, Protein cereblon/Bromodomain-containing protein 4 (Homo sapiens); assay: Protac activity at CRBN/BRD4 in human MV4-11 cells assessed as induction of BRD4 protein degradation by measuring residual activity at 0.015 uM incubated for 3 hrs by Western blot analysis relative to control; assay type: cell-based
[12] = molecular target: T1, Protein cereblon/Bromodomain-containing protein 4 (Homo sapiens); assay: Protac activity at CRBN/BRD4 in human MV4-11 cells assessed as induction of BRD4 protein degradation by measuring residual activity at 0.045 uM incubated for 3 hrs by Western blot analysis relative to control; assay type: cell-based
[13] = molecular target: T1, Protein cereblon/Bromodomain-containing protein 4 (Homo sapiens); assay: Protac activity at CRBN/BRD4 in human MM1.S cells assessed as induction of BRD4 protein degradation by measuring residual activity at 0.07 uM incubated for 3 hrs by Western blot analysis relative to control; assay type: cell-based
[14] = molecular target: T1, Protein cereblon/Bromodomain-containing protein 4 (Homo sapiens); assay: Protac activity at CRBN/BRD4 in human MM1.S cells assessed as induction of BRD4 protein degradation by measuring residual activity at 0.2 uM incubated for 3 hrs by Western blot analysis relative to control; assay type: cell-based
[15] = molecular target: T1, Protein cereblon/Bromodomain-containing protein 4 (Homo sapiens); assay: Protac activity at CRBN/BRD4 in human MM1.S cells assessed as induction of BRD4 protein degradation by measuring residual activity at 0.6 uM incubated for 3 hrs by Western blot analysis relative to control; assay type: cell-based
[16] = molecular target: T1, Protein cereblon/Bromodomain-containing protein 4 (Homo sapiens); assay: Protac activity at CRBN/BRD4 in human MM1.S cells assessed as induction of BRD4 protein degradation by measuring residual activity at 0.54 uM incubated for 3 hrs by Western blot analysis relative to control; assay type: cell-based
[17] = molecular target: T1, Protein cereblon/Bromodomain-containing protein 4 (Homo sapiens); assay: Protac activity at CRBN/BRD4 in human MV4-11 cells assessed as induction of BRD4 protein degradation by measuring residual activity at 0.006 uM incubated for 3 hrs by Western blot analysis relative to control; assay type: cell-based
[18] = molecular target: T1, Protein cereblon/Bromodomain-containing protein 4 (Homo sapiens); assay: Protac activity at CRBN/BRD4 in human MV4-11 cells assessed as induction of BRD4 protein degradation by measuring residual activity at 0.018 uM incubated for 3 hrs by Western blot analysis relative to control; assay type: cell-based
[19] = molecular target: T1, Protein cereblon/Bromodomain-containing protein 4 (Homo sapiens); assay: Protac activity at CRBN/BRD4 in human MV4-11 cells assessed as induction of BRD4 protein degradation by measuring residual activity at 0.054 uM incubated for 3 hrs by Western blot analysis relative to control; assay type: cell-based
[20] = molecular target: T1, Protein cereblon/Bromodomain-containing protein 4 (Homo sapiens); assay: Protac activity at CRBN/BRD4 in human MM1.S cells assessed as downregulation of MYC protein expression at […] incubated for 3 hrs by Western blot analysis; assay type: cell-based
[21] = molecular target: T1, Protein cereblon/Bromodomain-containing protein 4 (Homo sapiens); assay: Protac activity at CRBN/BRD4 in human MM1.S cells assessed as induction of BRD4 protein degradation by measuring residual activity at 0.03 uM incubated for 3 hrs by Western blot analysis relative to control; assay type: cell-based
[22] = molecular target: T1, Protein cereblon/Bromodomain-containing protein 4 (Homo sapiens); assay: Protac activity at CRBN/BRD4 in human MM1.S cells assessed as induction of BRD4 protein degradation by measuring residual activity at 0.1 uM incubated for 3 hrs by Western blot analysis relative to control; assay type: cell-based
[23] = molecular target: T1, Protein cereblon/Bromodomain-containing protein 4 (Homo sapiens); assay: Protac activity at CRBN/BRD4 in human MM1.S cells assessed as induction of BRD4 protein degradation by measuring residual activity at 0.3 uM incubated for 3 hrs by Western blot analysis relative to control; assay type: cell-based
[24] = molecular target: T1, Protein cereblon/Bromodomain-containing protein 4 (Homo sapiens); assay: Protac activity at CRBN/BRD4 in human MV4-11 cells assessed as induction of BRD4 protein degradation by measuring residual activity at 0.003 uM incubated for 3 hrs by Western blot analysis relative to control; assay type: cell-based
[25] = molecular target: T1, Protein cereblon/Bromodomain-containing protein 4 (Homo sapiens); assay: Protac activity at CRBN/BRD4 in human MV4-11 cells assessed as induction of BRD4 protein degradation by measuring residual activity at 0.009 uM incubated for 3 hrs by Western blot analysis relative to control; assay type: cell-based
[26] = molecular target: T1, Protein cereblon/Bromodomain-containing protein 4 (Homo sapiens); assay: Protac activity at CRBN/BRD4 in human MV4-11 cells assessed as induction of BRD4 protein degradation by measuring residual activity at 0.027 uM incubated for 3 hrs by Western blot analysis relative to control; assay type: cell-based

T1 sequence (Q96SW2 whole entry, looked up, other chains not shown): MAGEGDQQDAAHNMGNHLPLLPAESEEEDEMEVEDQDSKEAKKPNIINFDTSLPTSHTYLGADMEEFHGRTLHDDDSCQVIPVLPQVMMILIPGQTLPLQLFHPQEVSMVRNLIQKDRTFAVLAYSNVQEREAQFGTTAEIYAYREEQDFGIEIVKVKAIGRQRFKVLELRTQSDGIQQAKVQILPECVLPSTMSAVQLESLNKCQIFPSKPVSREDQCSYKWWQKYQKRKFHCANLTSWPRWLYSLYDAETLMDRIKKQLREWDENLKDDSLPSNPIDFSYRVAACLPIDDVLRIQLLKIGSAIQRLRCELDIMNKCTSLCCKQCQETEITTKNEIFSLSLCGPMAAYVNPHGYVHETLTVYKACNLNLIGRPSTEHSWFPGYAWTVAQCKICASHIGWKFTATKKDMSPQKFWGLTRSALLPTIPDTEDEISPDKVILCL

Row | SMILES | IC50 (MM1.S) | IC50 (MV4-11) | Activity [4] | Activity [5] | Activity [6] | Activity [7] | Activity [8] | further results
1 | Cc1sc2c(c1C)C(c1ccc(Cl)cc1)=N[C@@H](CC(=O)NCCCCC(=O)NCc1ccc(CNc3cccc4c3C(=O)N(C3CCC(=O)NC3=O)C4=O)cc1)c1nnc(C)n1-2 (stereo partly drawn) | 131 nM | 26 nM | 103% | 104% | 112% |  |  | Activity [1]: 121%; Activity [2]: 125%; Activity [3]: 116%
2 | Cc1sc2c(c1C)C(c1ccc(Cl)cc1)=N[C@@H](CC(=O)NCCCCNC(=O)c1ccc(COc3cccc4c3CN(C3CCC(=O)NC3=O)C4=O)cc1)c1nnc(C)n1-2 (stereo partly drawn) | 139 nM | 10 nM |  |  |  | 98% | 59% | Activity [9]: 93%; Activity [10]: 126%; Activity [11]: 102%; Activity [12]: 95%
3 | Cc1sc2c(c1C)C(c1ccc(Cl)cc1)=N[C@@H](CC(=O)NCCCCNC(=O)c1ccc(COc3cccc4c3C(=O)N(C3CCC(=O)NC3=O)C4=O)cc1)c1nnc(C)n1-2 (stereo partly drawn) | 297 nM | 25 nM | 126% | 108% | 91% |  |  | Activity [13]: 117%; Activity [14]: 97%; Activity [15]: 87%
4 | Cc1sc2c(c1C)C(c1ccc(Cl)cc1)=N[C@@H](CC(=O)OC(C)(C)C)c1nnc(C)n1-2 | 62 nM | 42 nM |  |  |  |  |  | 
5 | Cc1sc2c(c1C)C(c1ccc(Cl)cc1)=N[C@@H](CC(=O)NCCCCC(=O)NCCOc1cccc3c1C(=O)N(C1CCC(=O)NC1=O)C3=O)c1nnc(C)n1-2 (stereo partly drawn) | 163 nM | 18 nM |  |  |  | 90% | 111% | Activity [16]: 111%; Activity [17]: 105%; Activity [18]: 105%; Activity [19]: 117%
6 | Cc1sc2c(c1C)C(c1ccc(Cl)cc1)=N[C@@H](CC(=O)NCCCCCNC(=O)c1ccc(COc3cccc4c3C(=O)N(C3CCC(=O)NC3=O)C4=O)cc1)c1nnc(C)n1-2 (stereo partly drawn) | 110 nM | 8 nM |  |  |  |  |  | Activity [20]: inactive; Activity [21]: 87%; Activity [22]: 86%; Activity [23]: 75%; Activity [24]: 95%; Activity [25]: 96%; Activity [26]: 56%
